Holding throughout (type): cell-based
In assay [1] the test system is L929. Briefly: In vitro cell proliferation inhibition test (MTT), L929. Conditions: unit inferred.
The subject of assay [2] is A549. In words: In vitro inhibition test for cancer cell proliferation (MTT), A549. Conditions: unit inferred.
For assay [3], the system named is HeLa. In words: In vitro inhibition test for cancer cell proliferation (MTT), HeLa. Conditions: 24 h or 48 h after addition, unit inferred.
The test system of assay [4] is MCF-7. In words: In vitro inhibition test for cancer cell proliferation (MTT), MCF-7. Conditions: unit inferred.

The record followed here is patent publication US20250163002A1, “FUSED QUINONOXIME IMIDAZOLE, ONIUM DERIVATIVES THEREOF, PREPARATION AND USE THEREOF” (SHANGHAI JIAO TONG UNIVERSITY, priority 2022, published 2025).

As a reminder, the IC50 is the concentration at which inhibition is half-maximal. Low readings indicate inhibition by little substance, high ones a need for much substance.

Some results are limits rather than exact numbers.

As to `Cn1c[n+](C)c2c1C(=O)c1ccccc1/C2=N\O` [Compound 91, (E)-1-methyl-4-(hydroxylimino)-3-methyl-9-oxo-4,9-dihydro-1H-naphthol[2,3-d]imidazole-3-iodide], the IC50 in assay [1] (24 h or 48 h after addition) worked out at 4.7 µM; in assay [2] (24 h or 48 h after addition), 0.53 µM; in assay [3], 0.67 µM; in assay [4] (24 h or 48 h after addition) it was 0.84 µM.

Take `CCn1c[n+](C)c2c1C(=O)c1ccccc1/C2=N\O` [Compound 92, (E)-1-ethyl-4-(hydroxylimino)-3-methyl-9-oxo-4,9-dihydro-1H-naphthol[2,3-d]imidazole-3-iodide]: the IC50 is 13.5 µM in assay [1] (24 h or 48 h after addition), 0.54 µM in assay [2] (24 h or 48 h after addition), 1.63 µM in assay [3] and 0.94 µM in assay [4] (24 h or 48 h after addition).

On to `CCCn1c[n+](C)c2c1C(=O)c1ccccc1/C2=N\O` [Compound 93, (E)-4-(hydroxylimino)-3-methyl-9-oxo-1-propyl-4,9-dihydro-1H-naphthol[2,3-d]imidazole-3-iodide], for which the IC50 was 32.7 µM in assay [1] (24 h or 48 h after addition), 1.03 µM in assay [2] (24 h or 48 h after addition), 2.18 µM in assay [3] and 1.43 µM in assay [4] (24 h or 48 h after addition).

As for `CCCCn1c[n+](C)c2c1C(=O)c1ccccc1/C2=N\O` [Compound 94, (E)-1-butyl-4-(hydroxylimino)-3-methyl-9-oxo-4,9-dihydro-1H-naphthol[2,3-d]imidazole-3-iodide], the IC50 in assay [1] (Mus musculus, L929, 24 h or 48 h after addition) amounted to 39.2 µM; in assay [2] (Homo sapiens, A549, 24 h or 48 h after addition), 0.67 µM; in assay [3] (Homo sapiens, HeLa) it was 1.43 µM; in assay [4] (Homo sapiens, MCF7, 24 h or 48 h after addition), 0.84 µM.

Regarding `CC(C)n1c[n+](C)c2c1C(=O)c1ccccc1/C2=N\O` [Compound 95, (E)-4-(hydroxylimino)-1-isopropyl-3-methyl-9-oxo-4,9-dihydro-1H-naphthol[2,3-d]imidazole-3-iodide], the IC50 in assay [1] (24 h or 48 h after addition) was determined as 26.3 µM; in assay [2] (24 h or 48 h after addition), 1.89 µM; in assay [3], 18.3 µM; in assay [4] (24 h or 48 h after addition), 2 µM.

Regarding `CC(C)Cn1c[n+](C)c2c1C(=O)c1ccccc1/C2=N\O` [Compound 96, (E)-4-(hydroxylimino)-1-isobutyl-3-methyl-9-oxo-4,9-dihydro-1H-naphthol[2,3-d]imidazole-3-iodide], the IC50 in assay [1] (24 h or 48 h after addition) came to 57.4 µM; in assay [2] (24 h or 48 h after addition) it was 2.43 µM; in assay [3], 9.7 µM; in assay [4] (24 h or 48 h after addition) it was 1.26 µM.

Consider `CCC(C)Cn1c[n+](C)c2c1C(=O)c1ccccc1/C2=N\O` (stereo not shown) [Compound 97, (E)-4-(hydroxylimino)-3-methyl-1-(2-methylbutyl)-9-oxo-4,9-dihydro-1H-naphthol[2,3-d]imidazole-3-iodide], for which the IC50 was 74 µM in assay [1] (24 h or 48 h after addition), 1.37 µM in assay [2] (24 h or 48 h after addition), 1.97 µM in assay [3] and 1.05 µM in assay [4] (24 h or 48 h after addition).

On to `C[n+]1cn(C(C)(C)C)c2c1/C(=N/O)c1ccccc1C2=O` [Compound 98, (E)-1-(tert-butyl)-4-(hydroxylimino)-3-methyl-9-oxo-4,9-dihydro-1H-naphthol[2,3-d]imidazole-3-iodide], for which the IC50 is 38.9 µM in assay [1] (24 h or 48 h after addition), 0.59 µM in assay [2] (24 h or 48 h after addition), 2.18 µM in assay [3] and 1.81 µM in assay [4] (24 h or 48 h after addition).

On to `C[n+]1cn(C2CC2)c2c1/C(=N/O)c1ccccc1C2=O` [Compound 99, (E)-1-cyclopropyl-4-(hydroxylimino)-3-methyl-9-oxo-4,9-dihydro-1H-naphthol[2,3-d]imidazole-3-iodide], for which the IC50 in assay [1] (24 h or 48 h after addition) stood at 19.8 µM; in assay [2] (24 h or 48 h after addition), 1.72 µM; in assay [3] it was 5.74 µM; in assay [4] (24 h or 48 h after addition), 1.63 µM.

Consider `COCCn1c[n+](C)c2c1C(=O)c1ccccc1/C2=N\O` [Compound 100, (E)-4-(hydroxylimino)-1-(2-methoxyethyl)-3-methyl-9-oxo-4,9-dihydro-1H-naphthol[2,3-d]imidazole-3-iodide], for which the IC50 is 6.64 µM in assay [1] (24 h or 48 h after addition), 0.62 µM in assay [2] (24 h or 48 h after addition), 2.18 µM in assay [3] and 0.87 µM in assay [4] (24 h or 48 h after addition).

As to `CC(C)=CCn1c[n+](C)c2c1C(=O)c1ccccc1/C2=N\O` [Compound 101, (E)-4-(hydroxylimino)-3-methyl-1-(3-methyl-2-ene-1-yl)-9-oxo-4,9-dihydro-1H-naphthol[2,3-d]imidazole-3-iodide], the IC50 in assay [1] (24 h or 48 h after addition) came out at 13.1 µM; in assay [2] (24 h or 48 h after addition), 0.64 µM; in assay [3], 1.8 µM; in assay [4] (24 h or 48 h after addition), 0.87 µM.

Turning to `C[n+]1cn(Cc2ccccc2)c2c1/C(=N/O)c1ccccc1C2=O` [Compound 102, (E)-1-benzyl-4-(hydroxylimino)-3-methyl-9-oxo-4,9-dihydro-1H-naphthol[2,3-d]imidazole-3-iodide], the IC50 in assay [1] (24 h or 48 h after addition) is 37.4 µM; in assay [2] (24 h or 48 h after addition) it was 0.63 µM; in assay [3], 1.05 µM; in assay [4] (24 h or 48 h after addition), 0.89 µM.

Regarding `CCOC(=O)Cn1c[n+](C)c2c1C(=O)c1ccccc1/C2=N\O` [Compound 103, (E)-1-(2-ethoxy-2-ethoxy)-4-(hydroxylimino)-3-methyl-9-oxo-4,9-dihydro-1H-naphthol[2,3-d]imidazole-3-iodide], the concentration for half-maximal inhibition (IC50) is > 100 µM in assay [1] (24 h or 48 h after addition), 0.6 µM in assay [2] (24 h or 48 h after addition), 2.73 µM in assay [3] and 1.63 µM in assay [4] (24 h or 48 h after addition).

Turning to `C[n+]1cn(-c2ccccc2)c2c1/C(=N/O)c1ccccc1C2=O` [Compound 104, (E)-4-(hydroxylimino)-3-methyl-9-oxo-1-phenyl-4,9-dihydro-1H-naphthol[2,3-d]imidazole-3-iodide], the IC50 in assay [1] (24 h or 48 h after addition) was > 100 µM; in assay [2] (24 h or 48 h after addition), 12.2 µM; in assay [3], 12.5 µM; in assay [4] (24 h or 48 h after addition), 1.43 µM.

`Cc1cc(C)c(-n2c[n+](C)c3c2C(=O)c2ccccc2/C3=N\O)c(C)c1` [Compound 105, (E)-4-(hydroxylimino)-1-sym-trimethyl-3-methyl-9-oxo-4,9-dihydro-1H-naphthol[2,3-d]imidazole-3-iodide]: the IC50 in assay [1] (24 h or 48 h after addition) was > 100 µM; in assay [2] (24 h or 48 h after addition), 1.11 µM; in assay [3], 22.6 µM; in assay [4] (24 h or 48 h after addition), 6.12 µM.

For the compound `C[n+]1cn(Cc2cccs2)c2c1/C(=N/O)c1ccccc1C2=O` [Compound 106, (E)-4-(hydroxylimino)-3-methyl-9-oxo-1-(thiophene-2-yl-methyl)-4,9-dihydro-1H-naphthol[2,3-d]imidazole-3-iodide], the IC50 in assay [1] (24 h or 48 h after addition) is > 100 µM; in assay [2] (24 h or 48 h after addition), 11.2 µM; in assay [3], 9.2 µM; in assay [4] (24 h or 48 h after addition), 20.2 µM.

For the compound `C[n+]1cn(CC2OCCO2)c2c1/C(=N/O)c1ccccc1C2=O` [Compound 107, (E)-1-((1,3-dioxoheterocycle-2-yl)methyl)-4-(hydroxylimino)-3-methyl-9-oxo-4,9-dihydro-1H-naphthol[2,3-d]imidazole-3-iodide], the IC50 in assay [1] (24 h or 48 h after addition) is > 100 µM; in assay [2] (24 h or 48 h after addition) it was 0.6 µM; in assay [3], > 100 µM; in assay [4] (24 h or 48 h after addition) it was 9.85 µM.

Regarding `C[n+]1cn(Cc2ccc(F)cc2)c2c1/C(=N/O)c1ccccc1C2=O` [Compound 108, (E)-1-(4-fluorobenzyl)-4-(hydroxylimino)-3-methyl-9-oxo-4,9-dihydro-1H-naphthol[2,3-d]imidazole-3-iodide], the IC50 is > 100 µM in assay [1] (24 h or 48 h after addition), 0.5 µM in assay [2] (24 h or 48 h after addition), 2.38 µM in assay [3] and 1.63 µM in assay [4] (24 h or 48 h after addition).

As for `C[n+]1cn(-c2ccccc2F)c2c1/C(=N/O)c1ccccc1C2=O` [Compound 109, (E)-1-(2-fluorophenyl)-4-(hydroxylimino)-3-methyl-9-oxo-4,9-dihydro-1H-naphthol[2,3-d]imidazole-3-iodide], the IC50 in assay [1] (24 h or 48 h after addition) was > 100 µM; in assay [2] (24 h or 48 h after addition) it was 11.2 µM; in assay [3], 50 µM; in assay [4] (24 h or 48 h after addition) it was 57.8 µM.

Regarding `C[n+]1cn(-c2cccc(F)c2)c2c1/C(=N/O)c1ccccc1C2=O` [Compound 110, (E)-1-(3-fluorophenyl)-4-(hydroxylimino)-3-methyl-9-oxo-4,9-dihydro-1H-naphthol[2,3-d]imidazole-3-iodide], the IC50 in assay [1] (24 h or 48 h after addition) is > 100 µM; in assay [2] (24 h or 48 h after addition), 17.2 µM; in assay [3], 49 µM; in assay [4] (24 h or 48 h after addition), 42.3 µM.

`C[n+]1cn(-c2ccc(F)cc2)c2c1/C(=N/O)c1ccccc1C2=O` [Compound 111, (E)-1-(4-fluorophenyl)-4-(hydroxylimino)-3-methyl-9-oxo-4,9-dihydro-1H-naphthol[2,3-d]imidazole-3-iodide]: the IC50 in assay [1] (24 h or 48 h after addition) is > 100 µM; in assay [2] (24 h or 48 h after addition), 11.6 µM; in assay [3] it was 19.7 µM; in assay [4] (24 h or 48 h after addition) it was 24.6 µM.

As to `C[n+]1cn(Cc2ccccc2F)c2c1/C(=N/O)c1ccccc1C2=O` [Compound 112, (E)-1-(2-fluorobenzyl)-4-(hydroxylimino)-3-methyl-9-oxo-4,9-dihydro-1H-naphthol[2,3-d]imidazole-3-iodide], the IC50 was found to be 27.3 µM in assay [1] (24 h or 48 h after addition), 0.57 µM in assay [2] (24 h or 48 h after addition), 7.7 µM in assay [3] and 3.7 µM in assay [4] (24 h or 48 h after addition).

For the compound `C[n+]1cn(Cc2cccc(F)c2)c2c1/C(=N/O)c1ccccc1C2=O` [Compound 113, (E)-1-(3-fluorobenzyl)-4-(hydroxylimino)-3-methyl-9-oxo-4,9-dihydro-1H-naphthol[2,3-d]imidazole-3-iodide], the IC50 in assay [1] (24 h or 48 h after addition) was 73.4 µM; in assay [2] (24 h or 48 h after addition), 0.57 µM; in assay [3] it was 7.1 µM; in assay [4] (24 h or 48 h after addition), 10 µM.

`COc1ccc(-n2c[n+](C)c3c2C(=O)c2ccccc2/C3=N\O)cc1` [Compound 114, (E)-4-(hydroxylimino)-1-(4-methoxyphenyl)-3-methyl-9-oxo-4,9-dihydro-1H-naphthol[2,3-d]imidazole-3-iodide]: the IC50 in assay [1] (24 h or 48 h after addition) is > 100 µM; in assay [2] (24 h or 48 h after addition), 2.42 µM; in assay [3], 33.8 µM; in assay [4] (24 h or 48 h after addition), 33 µM.

On to `COc1ccc(Cn2c[n+](C)c3c2C(=O)c2ccccc2/C3=N\O)cc1` [Compound 115, (E)-4-(hydroxylimino)-1-(4-methoxybenzyl)-3-methyl-9-oxo-4,9-dihydro-1H-naphthol[2,3-d]imidazole-3-iodide], for which the IC50 was found to be 17.6 µM in assay [1] (24 h or 48 h after addition), 0.13 µM in assay [2] (24 h or 48 h after addition), 2.5 µM in assay [3] and 1.64 µM in assay [4] (24 h or 48 h after addition).
